Experimental data reported in patent US6465476B1, “Immuno-modulator exhibiting antimicrobial and anti-mycrobacterial activities, method for producing the same and pharmaceutical preparation” (priority 1997, dated 2002).
Where two headings read alike, the source gives them in different places.

Legend:
[1] = system: tuberculosis mycobacteria H37Rv (USSR H37Rv); format: in vivo, tuberculosis mycobacteria; mice of the CBA line; conditions: for Damage index / Life duration / Weight of the lung: USSR H37Rv
agent of leprosy = assay: Example 1, patient X, border-line tuberculoid leprosy; format: in vivo, human; parameters: histological index: scale not given here; Leucocytes / T-lymphocytes: unit not given here
Description: The patient X was admitted to a clinic with a diagnosis “border-line tuberculoid leprosy”. They had been considering themself ill for two years. They supposed that they had been infected in Africa where they had worked 8 years ago and used to receive vegetables from lepers. On the skin of the back, on the skin of the lateral abdiminal surfaces, on the left hip and shin, the left temple area of the head there were yellowish-reddish papules with a rust-coloured hue and sized 1.5 times 2 cm to 4 times 6 cm with no sensitivity in ther center. Disorder of sensitivity was noted along the length of peroneal and elbow nerves. The agent of leprosy was neither detected in the scrape from the nasal mucosa nor in the lymph on the bacterioscopic investigation. […] In the surface layers of derma there were multiple infiltrates and in the deeper layers of the skin there were focal and strand infiltrates. The histological index was equal to 1.1. The patient was prescribed a treatment in the form of isophonum to be taken internally 0.2 g each time twice a day. After 3.5 months all the elements (plaques) on the skin completely resolved and were replaced by hyperpigmented spots which after 4 months completely gained the colour of a normal skin. […] The patient was not hospitalyzed and received home treatment without interrupting their work. […] The histological index equaled 0. When histological investigation was repeated after 7 months with the purpose of transfering the patient under dispensary observation, the agent of leprosy was not detected either, in the surface layer of the derma were noted some small infiltrates out of lymphocytes with epithelioid cells in the form of accumulations.
In deeper layers of the skin there were small infiltrates around the blood vessels. It was decided to prolong the treatment of the patient for 6 months by administering isophonum internally in combination with diuciphonum.

pulmonary tuberculosis = assay: Clinical study on patients with pulmonary tuberculosis; format: in vivo, human; conditions: for B-lymphocytes / T-helpers / T-lymphocytes / T-suppressors / Th/Ts: pulmonary tuberculosis patients
Description: The preparation of the present invention was also studied clinically on tuberculous patients. The age of the patients was under 30 years (6 persons) and under 35 years (2 persons).
The clincal forms of pulmonary tuberculosis in the patients tested were as follows:
infiltrative tuberculosis without cavities of decay and bacterioexcretion—2 persons;
infiltrative tuberculosis with decay and bacterioexcretion—4 persons;
disseminated pulmonary tuberculosis—2 people.
The length of preparation intake was 1 to 2 months. The dose was equal to 0.6 g a day.
The control group consisting of 5 persons with infiltrative pulmonary tuberculosis received conventional treatment including isoniazide. The tolerance for the preparation claimed was good. […] There was no change in functional indices of parenchymatous organs (liver, kidneys, pancreas). In 3 persons hospitalized with symptoms of intoxication the improvement of general physical and mental state was noted including normatization of body temperature, abatement of cough, decrease in amount of sputum excretion, improvement of appetite.

[2] = system: agent of leprosy (mycobacteria of leprosy)
[3] = system: antibody-forming cells (AFC) in the spleens; assay: Antibody-forming cells in the spleen, immunodeficiency caused by irradiation (Jeme-Nordin's procedure); format: in vivo, mice F1 (CBA×C57BL/6); conditions: irradiated mice 4 Gy
Experimental: Determination of immunotropic activity of isophonum was carried out. Immunotropic activity of isophonum was determined on a model of immunodeficiency caused by irradiation. To create an immunodeficient state the mice F1 (CBA×C57BL/6) were irradiated with gamma-rays on a radioterapeutic apparatus in a dose of 4 Gy (Gy is the irradiation unit gray) at an irradiation dose power of 0.55 Gr/min. The number of antibody-forming cells (AFC) in the spleens was calculated by Jeme-Nordin's procedure. Isophonum and diuciphonum were introduced per os over a wide range of doses. The investigation results are represented in Table 1.

Storage stability = format: physicochemical
Description: More precisely, isophonum is produced by boiling equimolecular amounts of isonicotinic acid hydrazide and 6-methyluracyl-5-sulfochloride in anhydrous acetonitrile. The samples of isophonum maintain their properties during the period of time of 3 years.

[4] = after three months, 0.6 g a day
[5] = tuberculous patients, 0.6 g a day, 1 to 2 months
[6] = leprosy patients, after one month, 0.6 g daily
[7] = leprosy patients, after three months, 0.6 g daily
[8] = leprosy patients, before treatment

## Cc1[nH]c(=O)[nH]c(=O)c1S(=O)(=O)NNC(=O)c1ccncc1.O [Isophonum, N-(6-methyl-2,4-dioxo-1,2,3,4-tetrahydro-5-pyrimidinsulfon)-N′-isonicotinoylhydrazide hydrate]
[1]; 100 μg per mouse
  Damage index: 1.91 ± 0.18
  Life duration: 34.6 ± 4.8
  Weight of the lung: 507.0 ± 48.4
[1]; 200 μg per mouse
  Damage index: 1.81 ± 0.21
  Life duration: 35.7 ± 5.2
  Weight of the lung: 495.4 ± 56.1
[1]; mouse, in vivo
  antituberculous action: pronounced antituberculous action
Agent of leprosy; 0.2 g twice a day
  time after which all the elements (plaques) on the skin completely resolved: 3.5 months
Agent of leprosy; 3 months later, 0.2 g twice a day
  histological index: 0
Agent of leprosy; before treatment
  histological index: 1.1
Agent of leprosy; day 0 (before treatment)
  B-lymphocytes, %: 12%
  Leucocytes: 6.1
  Lymphocytes, %: 18%
  T-helpers, %: 50%
  T-lymphocytes: 57
  T-suppressors: 4
Agent of leprosy; day 180, 0.2 g twice a day
  B-lymphocytes, %: 17%
  Leucocytes: 6.8
  Lymphocytes, %: 30%
  T-helpers, %: 63%
  T-lymphocytes: 80
  T-suppressors: 27
Agent of leprosy; first column (no day head; presumably day 0)
  Phagocytosis: 30
Agent of leprosy; second column (no day head; presumably day 180)
  Phagocytosis: 5
Pulmonary tuberculosis; after one month, 0.6 g a day
  B-lymphocytes: 12.0 ± 0.8
  T-helpers: 37.4 ± 0.3
  T-lymphocytes: 48.5 ± 1.0
  T-suppressors: 20.0 ± 0.6
  Th/Ts: 1.85 ± 0.2
Pulmonary tuberculosis; [4]
  B-lymphocytes: 11.0 ± 0.6
  T-helpers: 55.5 ± 2.0
  T-lymphocytes: 54.8 ± 0.7
  Th/Ts: 2.75 ± 0.04
Pulmonary tuberculosis; before treatment
  B-lymphocytes: 9.0 ± 0.3
  T-helpers: 28.6 ± 0.2
  T-lymphocytes: 42.2 ± 0.1
  T-suppressors: 28.0 ± 1.2
  Th/Ts: 1.0 ± 0.02
Pulmonary tuberculosis; [5]
  signs of toxication: No one of the patients exhibeted clinical, hematological signs of toxicaction
  tolerance for the preparation: good
[2]; human, in vivo
  shortening of the length of stationary treatment of the leprous patients: two-fold
  tolerability, side effects: well tolerable, has no side effects
[2]; leprosy patients, 0.6 g daily
  time after which the agent of leprosy disappeared in scrapes of nasal mucosa: 3 months
[2]; [6]
  B-lymphocytes: 10.0 ± 0.2
  T-helpers: 28.2 ± 0.3
  T-lymphocytes: 43.4 ± 0.7
  T-suppressors: 20.0 ± 0.4
  Th/Ts (immunoregulatory index): 1.4
[2]; [7]
  B-lymphocytes: 11.4 ± 0.4
  T-helpers: 48.4 ± 1.2
  T-lymphocytes: 60.2 ± 0.9
  T-suppressors: 21.2 ± 0.4
  Th/Ts (immunoregulatory index): 2.3 ± 0.1
[2]; [8]
  B-lymphocytes: 8.4 ± 0.2
  T-helpers: 20.2 ± 0.2
  T-lymphocytes: 28.6 ± 0.1
  T-suppressors: 20.4 ± 0.3
  Th/Ts (immunoregulatory index): 1.0
[3]; 10 μg per mouse per os
  AFC-number in the spleen: 1013 ± 126
  Immune response stimulation index: 3.63 ± 0.57
[3]; 100 μg per mouse per os
  AFC-number in the spleen: 1173 ± 125
  Immune response stimulation index: 4.28 ± 0.8
[3]; 1000 μg per mouse per os
  AFC-number in the spleen: 1216 ± 124
  Immune response stimulation index: 4.46 ± 0.9
Storage stability
  period of time during which samples maintain their properties: 3 years
